Several values for one entry are separate records, joined by “and”; a condition that tells them apart may be missing. Identical values can stand only once.

A word on the Km: it is the concentration of substrate that gives half-maximal velocity.

The conditions of data set [1]: PMS/NTB, pH 6.5, 37° C.
For data set [2] the following is noted: phosphate buffer pH 7.0, 37° C.; for GO activity: 500 nm.
Data set [3] addresses purified FAD-GDH (Aspergillus oryzae, UniProt A0A1S9DW10). Nature of the data set: Substrate specificity 1 of purified FAD-GDH (PMS/NTB). The class given is biochemical, Aspergillus oryzae BB-56. The settings on record: reaction rate with respect to D-glucose assumed 100%, PIPES-NaOH pH 6.5, 37° C. The protocol:
Thus, the enzymatic activity was measured. The relative activity with respect to each substrate was calculated when the reaction rate with respect to D-glucose was assumed to be 100% (Table 3).

The test system of data set [4] is FAD-GDH derived from Aspergillus oryzae BB-56. Nature of the data set: Substrate specificity 2, relative activity (PMS/DCIP). The class given is biochemical. The note with it: activity with D-glucose assumed 100%; dialyzed culture filtrate; MOPS pH 7.0, 25° C. As for the experimental part: (§1) 10 mL of each culture filtrate derived from Aspergillus oryzae BB-56, IAM2603, IAM2628, IAM2683, IAM2736, IAM2706, or NBRC30113 was placed in a dialysis membrane 36 and dialyzed in 10 mM KH2PO4—NaOH at 4° C. over night.
(§2) By measuring the decrease of DCIP by the reduction reaction in the absorbance at 600 nm, the FAD-GDH activity was measured. The activity with respect to each substrate was calculated when the activity with respect to D-glucose as a substrate was assumed to be 100% (Table 4). From the results, the substrate specificities of FAD-GDH derived from Aspergillus oryzae BB-56, IAM2603, IAM2628, IAM2683, IAM2736, IAM2706, or NBRC30113 are the same as each other.

Data set [5] concerns FAD-GDH derived from Aspergillus oryzae IAM2603. The description is as above. The class given is biochemical. The settings on record: activity with D-glucose assumed 100%; dialyzed culture filtrate; MOPS pH 7.0, 25° C. As for the experimental part: as §1, §2
Data set [6] deals with FAD-GDH derived from Aspergillus oryzae IAM2628. The description is as above. It is filed as biochemical. The note with it: activity with D-glucose assumed 100%; dialyzed culture filtrate; MOPS pH 7.0, 25° C. As for the experimental part: as §1, §2
Data set [7] has as its system FAD-GDH derived from Aspergillus oryzae IAM2683. The data set is described as above. The class given is biochemical. The note with it: activity with D-glucose assumed 100%; dialyzed culture filtrate; MOPS pH 7.0, 25° C. As for the experimental part: as §1, §2
Data set [8] concerns FAD-GDH derived from Aspergillus oryzae IAM2706. The data set is described as above. The class given is biochemical. The note with it: activity with D-glucose assumed 100%; dialyzed culture filtrate; MOPS pH 7.0, 25° C. As for the experimental part:
as §1, §2

The subject of data set [9] is FAD-GDH derived from Aspergillus oryzae IAM2736. The description is as above. The note with it: activity with D-glucose assumed 100%; dialyzed culture filtrate; MOPS pH 7.0, 25° C. It is filed as biochemical. The protocol: as §1, §2
The test system of data set [10] is FAD-GDH derived from Aspergillus oryzae NBRC30113. Described as above. The class given is biochemical. The settings on record: activity with D-glucose assumed 100%; dialyzed culture filtrate; MOPS pH 7.0, 25° C. The protocol: as §1, §2
Data set [11] can be described thus: Investigation of optimum temperature. The class given is biochemical. The note with it: PIPES-NaOH buffer pH 6.5, 30-65° C. As for the experimental part:
Thus, the enzymatic activity was measured. […] (FIG. 6).

Data set [12] can be described thus: Investigation of pH for stability. The note with it: pH 3.0 to pH 7.0, 37° C., 30 minutes. It is filed as physicochemical. As for the experimental part: Herein, the optimum pH is a value measured in, for example, Mcllvaine buffer as mentioned below in the Examples. The optimum temperature is also a value measured in, for example, PIPES-NaOH buffer (pH 6.5). Furthermore, the enzyme maintains 80% or more of the activity when it is treated under a certain pH condition at 37° C. for 30 minutes, the enzyme can be “stable” in the pH condition. Similarly, when the activity of the enzyme is not substantially deteriorated (that is to say, about 100% of the activity is maintained) after it is treated under a certain temperature condition in a suitable buffer solution (for example, PIPES-NaOH buffer, pH 6.5) for 20 minutes, the enzyme can be “stable” in the temperature condition. The Km value and the isoelectric point can be measured and evaluated by the method described below in the Examples (columns 8 and 6).
Each treatment solution was appropriately diluted with 0.2M KH2PO4—NaOH buffer (pH 6.5) and the FAD-GDH activity was measured by the above-mentioned method 1. As a control, the activity of purified FAD-GDH, which was diluted with 0.1M KH2PO4—NaOH buffer (pH 6.5) and stored in ice, was also measured. As a result, FAD-GDH maintains 80% or more of the activity at least in the range from pH 3.0 to pH 7.0, showing that FAD-GDH is stable in the range from pH 3.0 to pH 7.0 (FIG. 7).

Data set [13] in a line: Investigation of temperature for stability. The class given is physicochemical. As for the experimental part:
Herein, the optimum pH is a value measured in, for example, Mcllvaine buffer as mentioned below in the Examples. The optimum temperature is also a value measured in, for example, PIPES-NaOH buffer (pH 6.5). Furthermore, the enzyme maintains 80% or more of the activity when it is treated under a certain pH condition at 37° C. for 30 minutes, the enzyme can be “stable” in the pH condition. […] The Km value and the isoelectric point can be measured and evaluated by the method described below in the Examples (columns 8 and 6).
Purified FAD-GDH was diluted to 1 U/mL with 50 mM PIPES-NaOH buffer (pH 6.5) containing 1 mM calcium chloride, 0.1% (w/v) Triton X-100, and 0.1% (w/v) bovine serum albumin and treated at each designated temperature (5, 30, 40, 50, or 60° C.) for 20 minutes. Each treated solution was cooled in ice and then it was diluted with 50 mM PIPES-NaOH buffer (pH 6.5) containing 1 mM calcium chloride, 0.1% (w/v) Triton X-100, 0.1% (w/v) bovine serum albumin, and the FAD-GDH activity was measured in the above-mentioned method 1. As a control, FAD-GDH of the not thermally treated enzyme was measured. […]

Data set [14] can be described thus: Measurement of isoelectric point (glycerol density gradient electrophoresis). It is filed as physicochemical. As for the experimental part: This dialysis sample was subjected to glycerol density gradient electrophoresis. A carrier ampholyte having a column volume of 110 mL (Pharmalyte™ 3-10 for IEF (Amersham Biosciences AB), average final concentration of 1%) was used to allow an electric current to pass at 5° C. at a constant voltage of 400V for 48 hours. After passing current, samples were recovered at the flow rate of about 2 mL/min (one fraction was made to be 1.5 mL). When pH and FAD-GDH activity of each fraction were measured, pI of FAD-GDH derived from Aspergillus oryzae BB-56 was 6.4 (FIG. 9).

Data set [15] has as its system purified FAD-GDH. The experiment in a line: Inhibition test with 1,10-phenanthroline (DCIP/1-methoxy PMS). It is filed as biochemical, Aspergillus oryzae. The protocol:
The enzymatic activities were measured in the control group and the test group (group in which 1,10-phenanthroline was added) and both activities were compared with each other. Thereby, the inhibition effect of 1,10-phenanthroline on purified FAD-GDH was examined.
Subsequently, 0.05 mL of enzyme solution was added, the change of absorbance in 600 nm of DCIP (ΔABS/min) was measured, and the enzymatic activity was calculated by the following calculation formula.
In the above-mentioned measurement method, the enzymatic activities when 1,10-phenanthroline was added so that the final concentration became 1 mM, 5 mM, 10 mM, 25 mM, and 50 mM were measured, respectively.

Substrate in data set [16]: OC[C@H]1OC(O)[C@H](O)[C@@H](O)[C@@H]1O
The experiment in a line: Measurement of Michaelis-Menten Km constant (Lineweaver-Burk plot). It is filed as biochemical, Aspergillus oryzae BB-56. The settings on record: other: purified FAD-GDH, PIPES-NaOH pH 6.5, 37° C.

With glucose oxidase [GO], in data set [1], the GDH activity turned out to be 8.86 U/mL and the “GDH activity (in words)” value is “also has the GDH activity”. In addition, the GO activity in [2] came out at 67.8 U/mL.

In data set [3], `OC[C@H]1O[C@H](O[C@H]2[C@H](O)[C@@H](O)C(O)O[C@@H]2CO)[C@H](O)[C@@H](O)[C@@H]1O` (mixture of isomers) [maltose] had a relative activity of 0.582%. For the same molecule, the “relative activity, BB-56” value in data set [4] worked out at 0%. Further, the “relative activity, IAM2603” value in [5] is reported as 0%. The “relative activity, IAM2628” value in data set [6] is reported as 0%. Further, in data set [7], the “relative activity, IAM2683” value amounted to 0%. Moreover, the “relative activity, IAM2706” value in data set [8] is recorded as 0%. The “relative activity, IAM2736” value in [9] worked out at 0%. Further, the “relative activity, NBRC30113” value in data set [10] came to 0%.

As to `O=CC[C@@H](O)[C@H](O)[C@H](O)CO` [2-deoxyglucose], in data set [4], the “relative activity, BB-56” value worked out at 35.1%. Besides, in data set [5], the “relative activity, IAM2603” value is given as 29.0%. Further, the “relative activity, IAM2628” value in data set [6] was 34.2%. For the same molecule, the “relative activity, IAM2683” value in data set [7] was 32.7%. In addition, in data set [8], the “relative activity, IAM2706” value is 33.9%. In addition, the “relative activity, IAM2736” value in data set [9] came to 31.3%. The “relative activity, NBRC30113” value in [10] turned out to be 35.3%.

Take `O=C(CO)[C@@H](O)[C@H](O)[C@H](O)CO` [fructose]: the “relative activity, BB-56” value in data set [4] was 0%. The “relative activity, IAM2603” value in [5] came to 0%. In addition, the “relative activity, IAM2628” value in data set [6] is reported as 1.40%. The “relative activity, IAM2683” value in data set [7] is 0%. In addition, in data set [8], the “relative activity, IAM2706” value is given as 0%. In addition, the “relative activity, IAM2736” value in [9] was 0%. In data set [10], the “relative activity, NBRC30113” value is 0%.

In turn, `O=C[C@H](O)[C@@H](O)[C@H](O)CO` [xylose] displayed a relative activity in data set [3] of 22.7%. The “relative activity, BB-56” value in data set [4] was 17.6%. The “relative activity, IAM2603” value in [5] was 16.1%. Also, the “relative activity, IAM2628” value in data set [6] is on record as 16.4%. The “relative activity, IAM2683” value in [7] is reported as 17.3%. The “relative activity, IAM2706” value in [8] came to 16.1%. For the same molecule, the “relative activity, IAM2736” value in data set [9] was found to be 14.6%. In addition, the “relative activity, NBRC30113” value in data set [10] worked out at 17.6%.

Take maltotriose: the relative activity in data set [3] was 0.239%.

As for “flavin adenine dinucleotide-binding glucose dehydrogenase”, the optimum temperature entry in [11] is “about 60 °C”. Further, the “activity maintained after pH treatment” value in data set [12] is given as at least 80%. Moreover, the “activity maintained after thermal treatment” value in data set [13] (40° C. or less, 20 minutes, pH 6.5) is on record as about 100%. This molecule also registered a temperature for stability in [13] (treated 20 minutes in PIPES-NaOH pH 6.5, stable = about 100% of activity maintained) of at most 40 °C. Also, in data set [14] (listed as FAD-GDH), the “isoelectric point (pI)” value is listed as “about 6.4”. The “isoelectric point (pI)” value in data set [14] (listed as FAD-GDH derived from Aspergillus oryzae BB-56) amounted to 6.4. The GDH activity in [1] turned out to be 119 U/mL. Besides, in data set [2], the “GO activity (in words)” value is reported as “does not substantially have the GO activity” and the GO activity came out at 0.0025 U/mL.

With maltohexaose, the relative activity in [3] came out at 0.479%.

`O=C[C@H](O)[C@@H](O)[C@@H](O)[C@H](O)CO` [galactose] registered a relative activity in [3] of 0.349%.

Take `c1cnc2c(c1)ccc1cccnc12` [1,10-phenanthroline]: the Inhibition effect worked out at 21% in data set [15] (final concentration of 1,10-phenanthroline 5 mM) and 38% in data set [15] (final concentration of 1,10-phenanthroline 10 mM).

Consider maltopentaose, for which the relative activity in [3] is 4.55%.

B1: purified FAD-GDH (Aspergillus oryzae) (protein)
chain: SPAGRAKNTTTYDYIVVGGGTSGLVVANRLSENPDVSVLLLEAGASVFNNPDVTNANGYGLAFGSAIDWQYQSINQSYAGGKQQVLRAGKALGGTSTINGMAYTRAEDVQIDVWQKLGNEGWTWKDLLPYYLKSENLTAPTSSQVAAGAAYNPAVNGKEGPLKVGWSGSLASGNLSVALNRTFQAAGVPWVEDVNGGKMRGFNIYPSTLDVDLNVREDAARAYYFPYDDRKNLHLLENTTANRLFWKNGSAEEAIADGVEITSADGKVTRVHAKKEVIISAGALRSPLILELSGVGNPTILKKNNITPRVDLPTVGENLQDQFNNGMAGEGYGVLAGASTVTYPSISDVFGNETDSIVASLRSQLSDYAAATVKVSNGHMKQEDLERLYQLQFDLIVKDKVPIAEILFHPGGGNAVSSEFWGLLPFARGNIHISSNDPTAPAAINPNYFMFEWDGKSQAGIAKYIRKILRSAPLNKLIAKETKPGLSEIPATAADEKWVEWLKANYRSNFHPVGTAAMMPRSIGGVVDNRLRVYGTSNVRVVDASVLPFQVCGHLVSTLYAVAERASDLIKEDAKSA
As to B1, in data set [16], the Km is 8.2 mM and 8 mM.

For the origin of these results see US20090181408A1 (AMANO ENZYME INC., priority 2006, published 2009).
